Like-named read-outs stand apart in the source and are kept apart here.
What was measured:
Recombinant human HDAC1 = target: T1, Recombinant human HDAC1 (Homo sapiens, UniProt Q13547); assay: Human HDAC enzyme inhibitor Fluor-de-Lys assay, HDAC1; format: biochemical; conditions: recombinant human HDAC1, Fluor-de-Lys assay
T1 construct: FLAG (C); made in house
Procedure, shortened: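 Fluor-de-Lys format at room temperature (23° C.): compounds titrated 10-point, 1:3, preincubated with HDAC before substrate addition; HDAC1 run at 0.3 nM enzyme with 20 μM BML-KI104. Developer with excess HDAC inhibitor ends the reaction, and trypsin-liberated AMC fluorescence is the read-out.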

KARN cells (Jurkat 2C4) = assay: cells; format: cell-based; conditions: luciferase induction, 100% = 2 μM SAHA
Procedure, shortened: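 Jurkat 2C4 (KARN) cells dosed with test compounds up to 40 μM final, 0.4% DMSO, overnight at 5% CO2; luciferase read by Steady-Glo luminescence after 10 min at room temperature. DMSO set as 0% and 2 μM SAHA as 100% induction; 4-parameter fit of percent activation.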

[1] = target: T2, Recombinant human HDAC3/SMRT heterodimer (Homo sapiens, UniProt O15379); assay: Human HDAC enzyme inhibitor Fluor-de-Lys assay, HDAC3/SMRT; format: biochemical; conditions: recombinant human HDAC3/SMRT, Fluor-de-Lys assay
T2 construct: FLAG (C); made in house
T2 sequence (O15379 whole entry): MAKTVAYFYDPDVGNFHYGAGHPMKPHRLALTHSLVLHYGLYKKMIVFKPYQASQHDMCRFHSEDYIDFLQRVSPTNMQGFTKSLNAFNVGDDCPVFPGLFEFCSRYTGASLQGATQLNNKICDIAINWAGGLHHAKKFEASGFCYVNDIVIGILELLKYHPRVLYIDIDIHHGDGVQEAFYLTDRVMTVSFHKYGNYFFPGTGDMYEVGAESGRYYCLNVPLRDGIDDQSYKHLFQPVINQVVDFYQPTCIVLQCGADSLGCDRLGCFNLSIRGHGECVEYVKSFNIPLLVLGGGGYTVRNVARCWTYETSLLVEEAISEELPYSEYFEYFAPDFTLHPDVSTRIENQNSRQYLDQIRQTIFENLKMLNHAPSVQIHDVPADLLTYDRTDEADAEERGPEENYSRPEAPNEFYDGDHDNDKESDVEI
T2 sequence (Q9Y618 1-899 partner limits assumed): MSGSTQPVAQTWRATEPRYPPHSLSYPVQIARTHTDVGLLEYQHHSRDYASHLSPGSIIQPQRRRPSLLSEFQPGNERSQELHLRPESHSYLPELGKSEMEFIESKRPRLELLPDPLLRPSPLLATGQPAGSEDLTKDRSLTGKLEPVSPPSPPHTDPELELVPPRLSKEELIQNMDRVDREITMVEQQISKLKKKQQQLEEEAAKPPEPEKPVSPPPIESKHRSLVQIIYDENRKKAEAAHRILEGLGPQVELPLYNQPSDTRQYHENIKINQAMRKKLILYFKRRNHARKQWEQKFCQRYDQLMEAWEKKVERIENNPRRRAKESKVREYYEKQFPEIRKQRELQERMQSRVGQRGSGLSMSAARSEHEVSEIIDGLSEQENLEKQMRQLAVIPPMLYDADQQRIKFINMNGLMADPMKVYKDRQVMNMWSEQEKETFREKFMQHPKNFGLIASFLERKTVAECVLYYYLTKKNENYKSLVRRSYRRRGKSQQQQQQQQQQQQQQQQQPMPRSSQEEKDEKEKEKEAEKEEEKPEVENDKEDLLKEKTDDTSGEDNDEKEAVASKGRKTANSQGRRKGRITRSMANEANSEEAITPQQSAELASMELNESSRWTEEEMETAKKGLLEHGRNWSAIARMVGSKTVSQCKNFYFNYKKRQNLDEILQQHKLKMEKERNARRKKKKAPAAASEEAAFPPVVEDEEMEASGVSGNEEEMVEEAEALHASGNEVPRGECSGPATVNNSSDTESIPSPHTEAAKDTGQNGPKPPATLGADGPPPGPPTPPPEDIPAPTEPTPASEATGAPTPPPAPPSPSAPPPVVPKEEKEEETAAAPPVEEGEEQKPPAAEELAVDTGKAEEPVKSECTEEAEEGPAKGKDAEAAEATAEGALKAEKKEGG

[2] = Homo sapiens, Jurkat, read-out: Karn EC50 (nM) 0.1% NHS, 0.1% normal human serum
[3] = Homo sapiens, Jurkat, read-out: Karn EC50 (nM) 5% NHS, 5% normal human serum
[4] = read-out: Karn EC50 (nM) 0.1% NHS, 0.1% normal human serum
[5] = read-out: Karn EC50 (nM) 5% NHS, 5% normal human serum

T1 sequence (Q13547 whole entry): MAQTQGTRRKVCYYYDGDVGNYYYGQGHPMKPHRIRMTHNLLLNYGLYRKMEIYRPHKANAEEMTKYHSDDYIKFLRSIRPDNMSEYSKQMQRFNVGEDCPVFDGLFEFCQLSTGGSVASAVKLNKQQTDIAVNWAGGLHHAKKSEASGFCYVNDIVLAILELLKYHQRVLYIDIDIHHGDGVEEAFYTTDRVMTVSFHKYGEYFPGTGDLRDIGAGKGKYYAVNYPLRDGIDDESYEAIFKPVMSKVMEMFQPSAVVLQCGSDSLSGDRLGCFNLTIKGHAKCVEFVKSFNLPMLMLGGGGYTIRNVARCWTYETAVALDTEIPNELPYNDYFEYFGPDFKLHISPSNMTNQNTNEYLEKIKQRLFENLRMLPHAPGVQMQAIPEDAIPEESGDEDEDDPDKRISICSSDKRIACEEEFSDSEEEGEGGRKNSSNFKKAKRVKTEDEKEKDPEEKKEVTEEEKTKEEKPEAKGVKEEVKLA

| Compound | IC50 (Recombinant human HDAC1) | EC50 (KARN cells (Jurkat 2C4); [2]) | EC50 (KARN cells (Jurkat 2C4); [3]) | IC50 [1] | EC50 (KARN cells (Jurkat 2C4); [4]) | EC50 (KARN cells (Jurkat 2C4); [5]) |
| --- | --- | --- | --- | --- | --- | --- |
| CCC(=O)CCCCC[C@H](NC(=O)C1=NOC2(CCN(C)CC2)C1)c1ncc(-c2ccccc2)[nH]1 [Compound 382] | 32.9 nM | 665 nM | 1070 nM | 8.02 nM | – | – |
| CCC(=O)CCCCC[C@H](NC(=O)[C@H]1CC[C@@]2(CC1)OC(=O)c1cnccc12)c1ncc(-c2ccccc2)[nH]1 [Compound 373] | 95.6 nM | 1650 nM | 5340 nM | 18.8 nM | – | – |
| CCC(=O)CCCCC[C@H](NC(=O)[C@H]1CC[C@]2(CC1)OC(=O)c1cccnc12)c1nnc(-c2cc3ccccc3nc2OC)o1 [Compound 368] | 50.5 nM | 1570 nM | 5240 nM | 20.6 nM | – | – |
| CCC(=O)CCCCCC(NC(=O)C1CCC2(CC1)OC(=O)c1ncccc12)c1nnc(-c2cc3ccccc3nc2OC)o1 (stereo not shown) [Compound 365] | 61.2 nM | 1550 nM | 3830 nM | 23.2 nM | – | – |
| CCC(=O)CCCCC[C@H](NC(=O)C1CC12CCOCC2)c1ncc(-c2cc3ccc(C)nc3cc2OC)o1 (single isomer, unassigned) [Compound 410] | 17.5 nM | – | – | – | 663 nM | 1390 nM |
| CCC(=O)CCCCC[C@H](NC(=O)[C@H]1CC12CCN(C)CC2)c1ncc(-c2cc3ccc(N(C)C)nc3cc2OC)o1 [Compound 406] | 0.83 nM | 280 nM | 279 nM | 1.05 nM | – | – |
| CCC(=O)CCCCC[C@H](NC(=O)CCN1C(=O)C(CC)=NC12CCOCC2)c1ncc(-c2ccccc2)[nH]1 [Compound 384] | 37.3 nM | 2220 nM | 2410 nM | 12.6 nM | – | – |
| CCC(=O)CCCCC[C@H](NC(=O)[C@H]1CC[C@@]2(CC1)OC(=O)c1ccncc12)c1ncc(-c2ccccc2)[nH]1 [Compound 372] | 92.5 nM | 2650 nM | 5250 nM | 14.1 nM | – | – |
| CCC(=O)CCCCC[C@H](NC(=O)[C@H]1CC[C@]2(CC1)OC(=O)c1ccncc12)c1ncc(-c2ccccc2)[nH]1 [Compound 376] | 49.9 nM | 1860 nM | 3680 nM | 9.02 nM | – | – |
| CCC(=O)CCCCC[C@H](NC(=O)[C@H]1CC[C@]2(CC1)OC(=O)c1ncccc12)c1nnc(-c2cc3ccccc3nc2OC)o1 [Compound 367] | 25.9 nM | 1330 nM | 4490 nM | 10.7 nM | – | – |
| CCC(=O)CCCCC[C@H](NC(=O)C1=NOC2(CCN(C)CC2)C1)c1nnc(-c2cc3ccccc3nc2OC)o1 [Compound 370] | 10.8 nM | 752 nM | 1430 nM | 8.87 nM | – | – |
| CCC(=O)CCCCC[C@H](NCC1CC1)c1ncc(-c2cc3ccc(C)nc3cc2OC)[nH]1 [Compound 398, (S)-9-((cyclopropylmethyl)amino)-9-(5-(7-methoxy-2-methylquinolin-6-yl)-1H-imidazol-2-yl)nonan-3-one] | 186 nM | 5500 nM | 10200 nM | 241 nM | – | – |
| CCC(=O)CCCCC[C@H](NC(=O)C1=NOC2(CCN(S(C)(=O)=O)CC2)C1)c1ncc(-c2ccccc2)[nH]1 [Compound 383] | 96.5 nM | 2620 nM | 3260 nM | 16.7 nM | – | – |
| CCC(=O)CCCCC[C@H](NC(=O)[C@H]1CC[C@@]2(CC1)OC(=O)c1cccnc12)c1nnc(-c2cc3ccccc3nc2OC)o1 [Compound 366] | 89.4 nM | 1500 nM | 5360 nM | 37.3 nM | – | – |
| CCC(=O)CCCCC[C@H](NC(=O)[C@H]1CC12CCN(C)CC2)c1ncc(-c2cc3ocnc3cc2OC)o1 [Compound 408] | 3.82 nM | 250 nM | 593 nM | 7.37 nM | – | – |
| CCC(=O)CCCCC[C@H](NC(=O)C1=NOC2(CCN(CC3CC3)CC2)C1)c1ncc(-c2cc3ccc(=O)n(C)c3cc2F)o1 [Compound 387] | 25.8 nM | 1540 nM | 1700 nM | 48.1 nM | – | – |
| CCCC(=O)CCCCC[C@H](NC(=O)[C@H]1CC12CCN(CC1CC1)CC2)c1ncc(-c2cc3ccc(C)nc3cc2OC)[nH]1 [Compound 416] | < 1.58 nM | 11 nM | 15 nM | 1.11 nM | – | – |
| CCC(=O)CCCCC[C@H](NC(=O)C1=NOC2(CCN(C)CC2)C1)c1ncc(-c2cc3ccncc3cc2OC)o1 [Compound 415] | 3.31 nM | 105 nM | 118 nM | 7.82 nM | – | – |

| Compound | IC50 (Recombinant human HDAC1) | EC50 (KARN cells (Jurkat 2C4); [2]) | EC50 (KARN cells (Jurkat 2C4); [3]) | IC50 [1] | EC50 (KARN cells (Jurkat 2C4); [4]) | EC50 (KARN cells (Jurkat 2C4); [5]) |
| --- | --- | --- | --- | --- | --- | --- |
| CCC(=O)CCCCC[C@H](NC(=O)C1CC12CCOCC2)c1ncc(-c2cc3ccc(C)nc3cc2OC)o1 (single isomer, unassigned) [Compound 409] | 10.5 nM | 811 nM | 1860 nM | – | – | – |
| CCC(=O)CCCCC[C@H](NC(=O)[C@H]1CC12CCN(CC1CC1)CC2)c1ncc(-c2ccc3nc(C)ccc3c2)[nH]1 [Compound 393] | 0.05 nM | 21 nM | 22 nM | 0.05 nM | – | – |
| CCC(=O)CCCCC[C@H](NC(=O)[C@H]1CC[C@@]2(CC1)OC(=O)c1ncccc12)c1ncc(-c2ccccc2)[nH]1 [Compound 374] | 92.7 nM | 2580 nM | 5400 nM | 15.8 nM | – | – |
| CCC(=O)CCCCC[C@H](NCc1ccncc1)c1ncc(-c2cc3ccc(C)nc3cc2OC)[nH]1 [Compound 404] | 367 nM | > 40000 nM | > 40000 nM | 501 nM | – | – |
| CCC(=O)CCCCC[C@H](NC(=O)C1=NOC2(CCN(C)CC2)C1)c1ncc(-c2cc3ccc(=O)n(C)c3cc2F)o1 [Compound 386] | 7.82 nM | 934 nM | 1060 nM | 12.4 nM | – | – |
| CCC(=O)CCCCC[C@H](NC(=O)C1=NOC2(CCN(C)CC2)C1)c1ncc(-c2ccc(-c3ccncc3)cc2OC)o1 [Compound 395] | 2.42 nM | 618 nM | 725 nM | 6.78 nM | – | – |
| CCC(=O)CCCCC[C@H](NC(=O)C1=NOC2(CCN(C)CC2)C1)c1ncc(-c2ccc(Cl)cc2OC)o1 [Compound 390] | 18 nM | – | – | 39.4 nM | 674 nM | 1680 nM |
| CCC(=O)CCCCC[C@H](NC(=O)C1CC12CCOCC2)c1ncc(-c2cc3ccc(C)nc3cc2OC)[nH]1 (single isomer, unassigned) [Compound 407] | 0.9 nM | 336 nM | 977 nM | 3.68 nM | – | – |
| CCC(=O)CCCCC[C@H](NC(=O)C1=NOC2(CCN(S(C)(=O)=O)CC2)C1)c1nnc(-c2cc3ccccc3nc2OC)o1 [Compound 371] | 86.7 nM | 5000 nM | 6040 nM | – | – | – |
| CCC(=O)CCCCC[C@H](NC(=O)C1=NOC2(CCN(C)CC2)C1)c1ncc(-c2cc3ccc(N(C)C)nc3cc2OC)o1 [Compound 397] | 1.36 nM | 279 nM | 327 nM | 2.66 nM | – | – |
| CCC(=O)CCCCCC(CC)(NC(=O)[C@H]1CC12CCN(CC1CC1)CC2)c1nc(-c2cc3ccc(C)nc3cc2OC)c[nH]1 (stereo partly drawn) [Compound 420, (1S)-6-(cyclopropylmethyl)-N-{3-[4-(7-methoxy-2-methylquinolin-6-yl)-1H-imidazol-2-yl]-9-oxoundecan-3-yl}-6-azaspiro[2.5]octane-1-carboxamide] | 484 nM | 11800 nM | > 40000 nM | 328 nM | – | – |
| CCC(=O)CCCCC[C@H](NC(=O)C1=NOC2(CCN(C(C)=O)CC2)C1)c1ncc(-c2ccccc2)[nH]1 [Compound 380] | 69.8 nM | 1920 nM | 2410 nM | 8.92 nM | – | – |
| CCCC(=O)CCCCC[C@H](N)c1ncc(-c2cc3ccc(C)nc3cc2OC)[nH]1 [Compound A30] | 60.6 nM | 1490 nM | 5610 nM | 95.6 nM | – | – |
| CCC(=O)CCCCC[C@H](NCC1CN(C)C1)c1ncc(-c2cc3ccc(C)nc3cc2OC)o1 [Compound 401, (9S)-9-[5-(7-methoxy-2-methylquinolin-6-yl)-1,3-oxazol-2-yl]-9-{[(1-methylazetidin-3-yl)methyl]amino}nonan-3-one] | 32.1 nM | 1840 nM | 2210 nM | 51.3 nM | – | – |
| CCC(=O)CCCCC[C@H](NC(=O)[C@H]1CC12CCN(CC1CC1)CC2)c1ncc(-c2cc3ccc(=O)n(C)c3cc2F)o1 [Compound 400] | 6.41 nM | 577 nM | 557 nM | – | – | – |
| CCC(=O)CCCCC[C@H](NC(=O)C1=NOC2(CCN(C(C)C)CC2)C1)c1ncc(-c2ccccc2)[nH]1 [Compound 379] | 21.9 nM | 472 nM | 771 nM | 4.77 nM | – | – |
| CCC(=O)CCCCC[C@H](NC(=O)[C@H]1CC[C@]2(CC1)OC(=O)c1cccnc12)c1ncc(-c2ccccc2)[nH]1 [Compound 378] | 46 nM | 1310 nM | 2990 nM | 7.08 nM | – | – |
| CCC(=O)CCCCC[C@H](NC(=O)C1=NOC2(CCN(C(C)C)CC2)C1)c1nnc(-c2cc3ccccc3nc2OC)o1 [Compound 369] | 18.5 nM | 804 nM | 1680 nM | – | – | – |

Reference: patent US12590099B2, “Inhibitors of histone deacetylase useful for the treatment or prevention of HIV infection” (Merck Sharp & Dohme LLC, priority 2018, dated 2026)
